The results in this text go back to paper PMC7180948, “New Insights into 4-Anilinoquinazolines as Inhibitors of Cardiac Troponin I–Interacting Kinase (TNNi3K)” (Molecules, 2020).

Experiment in all cases: biochemical
Common to all, as to set-up: KINOMEscan competition binding panel (Eurofins DiscoverX), single concentration, % inhibition
Conditions in all cases: read-out: 7 at 1 µM % inhibition

Test [1] concerns the target T1, ABL1(Q252H)-phosphorylated (Homo sapiens, UniProt P00519, Q252H).
T1 construct: phosphorylated
Put shortly: (§1)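 Binding was profiled in the KINOMEscan panel of over 400 human kinases, with each compound tested at a single concentration of 1 µM to map selectivity.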

In the next test the target is T2, ABL1-nonphosphorylated (Homo sapiens, UniProt P00519).
T2 construct: nonphosphorylated
Put shortly:
as §1

The next test has as its target ALK(C1156Y) (Homo sapiens, UniProt Q9UM73, C1156Y). Put shortly:
as §1

The target in the next test is T3, ASK1 (Homo sapiens, UniProt Q99683).
T3 construct: gene MAP3K5
An outline of the steps: as §1

For the next test, the target named is BUB1 (Homo sapiens, UniProt O43683). Put shortly: as §1
The target in a further test is DDR2 (Homo sapiens, UniProt Q16832). An outline of the steps: as §1
A further test has as its target EGFR(L858R) (Homo sapiens, UniProt P00533, L858R). Put shortly:
as §1

In a further test the target is EPHB6 (Homo sapiens, UniProt O15197). Put shortly:
as §1

The target of the next test is FGFR2 (Homo sapiens, UniProt P21802). Put shortly: as §1
For another test, the target named is FLT3(D835Y) (Homo sapiens, UniProt P36888, D835Y). Put shortly:
as §1

The target of a further test is INSR (Homo sapiens, UniProt P06213). An outline of the steps: as §1
Test [2] addresses T4, JAK2(JH1domain-catalytic) (Homo sapiens, UniProt O60674).
T4 construct: JH1domain-catalytic
Put shortly: as §1

Another test addresses KIT(D816H) (Homo sapiens, UniProt P10721, D816H). An outline of the steps: as §1
The next test concerns the target LRRK2 (Homo sapiens, UniProt Q5S007). Put shortly: as §1
For a further test, the target named is MELK (Homo sapiens, UniProt Q14680). Put shortly:
as §1

In another test the target is T5, MST1 (Homo sapiens, UniProt Q13043).
T5 construct: gene STK4
An outline of the steps: as §1

The next test concerns the target PRKG2 (Homo sapiens, UniProt Q13237). An outline of the steps:
as §1

The target of another test is RET(M918T) (Homo sapiens, UniProt P07949, M918T). An outline of the steps:
as §1

Test [3] addresses T6, RSK2(Kin.Dom.2-C-terminal) (Homo sapiens, UniProt P51812).
T6 construct: gene RPS6KA3; Kin.Dom.2-C-terminal
Put shortly:
as §1

The next test addresses SRPK2 (Homo sapiens, UniProt P78362). An outline of the steps:
as §1

The next test has as its target TAOK1 (Homo sapiens, UniProt Q7L7X3). Put shortly: as §1
A further test deals with T7, TIE2 (Homo sapiens, UniProt Q02763).
T7 construct: gene TEK
An outline of the steps:
as §1

The next test concerns the target TXK (Homo sapiens, UniProt P42681). Put shortly: as §1
Another test concerns the target WNK3 (Homo sapiens, UniProt Q9BYP7). An outline of the steps: as §1

As a reminder, the inhibition is the share of the control response that was lost under treatment.

Chain of ALK(C1156Y) (Q9UM73 whole entry C1156Y): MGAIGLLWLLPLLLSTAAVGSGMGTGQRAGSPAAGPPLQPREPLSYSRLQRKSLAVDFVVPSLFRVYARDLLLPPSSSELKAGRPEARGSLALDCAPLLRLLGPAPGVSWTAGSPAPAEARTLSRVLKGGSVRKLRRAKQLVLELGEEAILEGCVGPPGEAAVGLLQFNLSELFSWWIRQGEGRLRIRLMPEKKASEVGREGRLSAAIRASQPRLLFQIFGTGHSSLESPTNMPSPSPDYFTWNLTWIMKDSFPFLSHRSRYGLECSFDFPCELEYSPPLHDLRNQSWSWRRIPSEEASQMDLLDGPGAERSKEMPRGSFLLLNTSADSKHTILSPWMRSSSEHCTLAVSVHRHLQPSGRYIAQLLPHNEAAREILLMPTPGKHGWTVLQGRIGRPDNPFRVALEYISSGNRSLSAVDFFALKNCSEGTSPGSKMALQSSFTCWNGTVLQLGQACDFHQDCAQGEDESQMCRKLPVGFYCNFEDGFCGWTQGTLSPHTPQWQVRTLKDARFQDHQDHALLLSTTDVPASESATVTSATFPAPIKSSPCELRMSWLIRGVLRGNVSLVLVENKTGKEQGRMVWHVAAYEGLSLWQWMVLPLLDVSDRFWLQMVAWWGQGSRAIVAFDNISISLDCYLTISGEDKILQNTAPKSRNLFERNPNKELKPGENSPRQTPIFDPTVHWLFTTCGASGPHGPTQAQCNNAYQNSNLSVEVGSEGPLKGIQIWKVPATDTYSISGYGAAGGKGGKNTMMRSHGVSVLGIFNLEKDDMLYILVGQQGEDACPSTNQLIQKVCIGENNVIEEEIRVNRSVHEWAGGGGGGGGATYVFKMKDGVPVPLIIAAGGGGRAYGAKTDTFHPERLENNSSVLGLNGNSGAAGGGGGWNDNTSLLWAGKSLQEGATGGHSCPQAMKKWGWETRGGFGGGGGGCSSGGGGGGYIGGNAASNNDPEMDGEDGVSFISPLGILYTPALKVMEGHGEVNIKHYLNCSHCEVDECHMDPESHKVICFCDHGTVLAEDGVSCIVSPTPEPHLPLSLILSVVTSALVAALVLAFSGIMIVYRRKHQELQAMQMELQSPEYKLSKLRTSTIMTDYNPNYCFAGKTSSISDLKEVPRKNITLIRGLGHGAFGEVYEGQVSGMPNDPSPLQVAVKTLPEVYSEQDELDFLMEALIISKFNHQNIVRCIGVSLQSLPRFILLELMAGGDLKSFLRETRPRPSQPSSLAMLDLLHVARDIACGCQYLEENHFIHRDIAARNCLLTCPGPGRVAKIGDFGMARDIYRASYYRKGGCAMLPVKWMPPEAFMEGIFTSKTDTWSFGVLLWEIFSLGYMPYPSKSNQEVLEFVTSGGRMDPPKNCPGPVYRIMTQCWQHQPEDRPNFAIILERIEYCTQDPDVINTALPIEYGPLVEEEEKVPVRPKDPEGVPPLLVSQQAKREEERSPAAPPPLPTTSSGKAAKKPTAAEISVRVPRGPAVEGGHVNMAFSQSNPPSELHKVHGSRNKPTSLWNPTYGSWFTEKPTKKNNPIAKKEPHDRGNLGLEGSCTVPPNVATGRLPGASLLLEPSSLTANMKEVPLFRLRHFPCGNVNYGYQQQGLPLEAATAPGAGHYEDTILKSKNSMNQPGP
Chain of TXK (P42681 whole entry): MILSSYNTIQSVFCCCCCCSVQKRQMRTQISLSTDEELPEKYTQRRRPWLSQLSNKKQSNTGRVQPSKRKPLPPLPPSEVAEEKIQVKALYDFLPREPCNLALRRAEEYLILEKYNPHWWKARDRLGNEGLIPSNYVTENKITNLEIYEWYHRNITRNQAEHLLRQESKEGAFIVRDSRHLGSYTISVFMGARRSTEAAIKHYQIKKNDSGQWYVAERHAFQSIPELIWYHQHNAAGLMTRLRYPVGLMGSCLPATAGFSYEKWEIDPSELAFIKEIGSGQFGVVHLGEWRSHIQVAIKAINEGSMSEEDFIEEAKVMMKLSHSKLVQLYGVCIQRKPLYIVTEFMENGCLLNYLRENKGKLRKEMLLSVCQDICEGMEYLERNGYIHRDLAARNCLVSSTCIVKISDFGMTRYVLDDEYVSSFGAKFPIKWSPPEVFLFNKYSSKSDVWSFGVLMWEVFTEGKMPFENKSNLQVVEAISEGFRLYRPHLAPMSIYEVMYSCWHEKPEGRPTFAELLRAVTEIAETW
Chain of TAOK1 (Q7L7X3 whole entry): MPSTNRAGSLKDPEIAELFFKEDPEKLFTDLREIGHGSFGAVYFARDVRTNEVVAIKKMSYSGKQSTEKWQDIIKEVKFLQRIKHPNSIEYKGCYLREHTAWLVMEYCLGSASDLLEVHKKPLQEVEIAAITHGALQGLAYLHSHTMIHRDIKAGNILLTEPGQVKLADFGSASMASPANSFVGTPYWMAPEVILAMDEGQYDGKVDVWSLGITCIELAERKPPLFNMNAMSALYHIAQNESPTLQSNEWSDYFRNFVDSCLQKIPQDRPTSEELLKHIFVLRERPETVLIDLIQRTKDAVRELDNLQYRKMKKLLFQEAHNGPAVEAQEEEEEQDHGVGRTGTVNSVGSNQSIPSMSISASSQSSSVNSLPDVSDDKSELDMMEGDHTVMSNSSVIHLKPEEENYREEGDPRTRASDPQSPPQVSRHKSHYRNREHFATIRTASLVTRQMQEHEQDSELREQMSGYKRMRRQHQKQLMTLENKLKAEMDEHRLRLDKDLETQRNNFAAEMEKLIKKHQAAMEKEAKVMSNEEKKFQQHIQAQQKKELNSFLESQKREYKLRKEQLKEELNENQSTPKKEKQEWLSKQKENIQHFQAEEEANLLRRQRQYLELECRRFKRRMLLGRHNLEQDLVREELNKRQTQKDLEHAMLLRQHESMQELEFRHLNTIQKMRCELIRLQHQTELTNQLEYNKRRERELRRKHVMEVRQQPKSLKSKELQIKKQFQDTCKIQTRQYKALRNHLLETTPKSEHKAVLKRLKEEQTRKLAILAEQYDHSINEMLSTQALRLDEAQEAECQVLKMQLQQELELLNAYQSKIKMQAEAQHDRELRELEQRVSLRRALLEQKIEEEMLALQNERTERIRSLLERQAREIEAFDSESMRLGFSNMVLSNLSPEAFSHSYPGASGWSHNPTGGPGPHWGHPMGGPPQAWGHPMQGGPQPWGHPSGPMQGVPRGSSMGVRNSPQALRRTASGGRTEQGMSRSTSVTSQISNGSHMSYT
Chain of RET(M918T) (P07949 whole entry M918T): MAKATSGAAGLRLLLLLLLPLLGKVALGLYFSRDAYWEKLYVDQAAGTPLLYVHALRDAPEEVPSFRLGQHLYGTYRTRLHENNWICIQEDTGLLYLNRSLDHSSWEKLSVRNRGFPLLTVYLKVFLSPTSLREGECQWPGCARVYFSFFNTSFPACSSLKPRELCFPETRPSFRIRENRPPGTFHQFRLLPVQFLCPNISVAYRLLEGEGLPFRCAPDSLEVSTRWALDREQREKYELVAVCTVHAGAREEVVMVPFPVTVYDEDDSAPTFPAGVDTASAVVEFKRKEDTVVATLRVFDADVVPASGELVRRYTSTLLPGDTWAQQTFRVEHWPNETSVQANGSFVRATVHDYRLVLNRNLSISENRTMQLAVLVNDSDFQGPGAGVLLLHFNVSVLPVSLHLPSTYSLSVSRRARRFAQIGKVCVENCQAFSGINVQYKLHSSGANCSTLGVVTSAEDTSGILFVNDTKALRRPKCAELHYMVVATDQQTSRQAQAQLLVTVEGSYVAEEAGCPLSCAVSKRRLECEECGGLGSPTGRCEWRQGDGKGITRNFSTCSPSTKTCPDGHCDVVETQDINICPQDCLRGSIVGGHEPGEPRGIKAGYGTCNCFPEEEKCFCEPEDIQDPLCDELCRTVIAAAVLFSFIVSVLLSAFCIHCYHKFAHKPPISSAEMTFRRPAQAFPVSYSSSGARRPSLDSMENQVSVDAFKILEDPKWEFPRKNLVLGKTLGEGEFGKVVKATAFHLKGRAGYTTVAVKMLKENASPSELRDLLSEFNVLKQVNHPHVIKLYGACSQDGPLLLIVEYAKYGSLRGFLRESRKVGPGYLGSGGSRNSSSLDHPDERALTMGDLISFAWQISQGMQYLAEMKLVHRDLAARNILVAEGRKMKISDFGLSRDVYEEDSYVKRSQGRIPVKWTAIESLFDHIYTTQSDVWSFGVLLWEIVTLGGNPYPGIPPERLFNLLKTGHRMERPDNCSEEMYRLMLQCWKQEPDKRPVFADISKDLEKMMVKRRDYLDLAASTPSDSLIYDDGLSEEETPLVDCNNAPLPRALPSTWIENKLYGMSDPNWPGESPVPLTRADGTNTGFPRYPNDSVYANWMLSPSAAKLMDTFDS
Chain of SRPK2 (P78362 whole entry): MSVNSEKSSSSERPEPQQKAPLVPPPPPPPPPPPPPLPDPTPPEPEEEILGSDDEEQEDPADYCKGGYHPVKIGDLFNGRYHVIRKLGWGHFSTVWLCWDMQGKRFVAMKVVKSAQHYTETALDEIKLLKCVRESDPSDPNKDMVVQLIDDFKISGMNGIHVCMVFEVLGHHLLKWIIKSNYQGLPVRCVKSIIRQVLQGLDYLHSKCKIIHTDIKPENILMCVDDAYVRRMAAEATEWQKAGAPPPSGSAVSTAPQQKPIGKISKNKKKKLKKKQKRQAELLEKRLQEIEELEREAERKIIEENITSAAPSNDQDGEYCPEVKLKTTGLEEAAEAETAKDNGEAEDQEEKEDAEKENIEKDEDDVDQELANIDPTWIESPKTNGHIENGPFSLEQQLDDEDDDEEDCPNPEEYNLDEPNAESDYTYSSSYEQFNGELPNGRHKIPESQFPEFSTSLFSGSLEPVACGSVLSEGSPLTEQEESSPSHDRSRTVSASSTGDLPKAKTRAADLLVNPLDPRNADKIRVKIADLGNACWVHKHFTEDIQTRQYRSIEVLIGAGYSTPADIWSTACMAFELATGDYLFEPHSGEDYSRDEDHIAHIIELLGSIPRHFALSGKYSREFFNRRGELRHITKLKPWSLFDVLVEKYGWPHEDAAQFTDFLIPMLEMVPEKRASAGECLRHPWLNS

As for `CNS(=O)(=O)c1ccc(N(C)C)c(Nc2ncnc3cc(OC)c(OC)cc23)c1` [compound 7, 3-((6,7-dimethoxyquinazolin-4-yl)amino)-4-(dimethylamino)-N-methylbenzenesulfonamide], the inhibition at 1 µM in test [1] is 79%; on ABL1-nonphosphorylated, 21%; on ALK(C1156Y), 0%; on ASK1 it was 0%; at BUB1, 8%; at DDR2, 41%. The inhibition at 1 µM is 8% on EGFR(L858R); 15% at EPHB6; 0% at FGFR2; 13% at FLT3(D835Y); 17% at INSR; 9% in test [2]. Also, the inhibition at 1 µM worked out at 100% at KIT(D816H); 9% at LRRK2; 17% at MELK; 21% at MST1; 14% on PRKG2; 0% on RET(M918T). Besides, the inhibition at 1 µM in test [3] turned out to be 33%; at SRPK2, 15%; on TAOK1 it was 25%; at TIE2, 0%; on TXK, 0%; on WNK3, 2%.
